Assay results: US4474967A, “8-Deutero and 8-tritio-substituted derivatives of D-4S-6-fluoro-spiro-[chroman-4,4'-imidazolidine]-2',5'-dione” (Pfizer Inc., priority 1983, dated 1984)

Tested on: aldose reductase
Assay: Inhibition of aldose reductase enzyme activity (S. Hayman et al., as modified by K. Sestanj et al.)
Format: biochemical
Conditions: partially purified aldose reductase enzyme from calf lens
Experimental: The following asymmetric spiro-hydantoin compounds of Examples 1 and 2, respectively, were tested at a concentration level of 10^-6 M for their ability to reduce or inhibit aldose reductase enzyme activity via the procedure of S. Hayman et al., as described in the Journal of Biological Chemistry, Vol. 240, p. 877(1965) and as modified by K. Sestanj et al. in U.S. Pat. No. 3,821,383. In each case, the substrate employed was partially purified aldose reductase enzyme obtained from calf lens.

Structure (SMILES) | % Inhibition at 10^-6 M [%]
O=C1NC(=O)[C@@]2(CCOc3c(F)cc(F)cc32)N1 [Product of Example 1, 4S-6,8-difluoro-spiro-[chroman-4,4'-imidazolidine]-2',5'-dione] | 74
O=C1NC(=O)[C@@]2(CCOc3c(Cl)cc(F)cc32)N1 [Product of Example 2, 4S-6-fluoro-8-chloro-spiro-[chroman-4,4'-imidazolidine]-2',5'-dione] | 64
